Measurements from EP4000606A1, “COMPOUNDS FOR CORONAVIRUS INFECTION TREATMENT AND/OR PREVENTION” (priority 2020, dated 2022).
Where two headings read alike, the source gives them in different places.

Tested on: SARS-CoV-2
Assay: microbe, parasite or virus in culture
Format: cell-based
[1] = Severe acute respiratory syndrome coronavirus 2, 120 h
[2] = confluence of SARS-CoV-2 infected VeroE6-EGFP cells after test compound treatment compared to control wells, 5 days

Molecule	Maximum confluence reached (%) (5 days)	IC50 [1] [µM]	other results
CC(C)(C)c1cc(C=C(C#N)C#N)cc(C(C)(C)C)c1O [compound 66, (3,5-Di-tert-butyl-4-hydroxybenzylidene)malononitrile]	47.6		
O=C(C1CC1)N1CC[C@@H](Cc2n[nH]c(=O)n2-c2ccc(-c3ccc4ccoc4c3)cc2)C1 [compound 67, 4-[4-(1-Benzofuran-6-yl)phenyl]-5-[1-(cyclopropylcarbonyl)pyrrolidin-3(S)-ylmethyl]-3,4-dihydro-2H-1,2,4-triazol-3-one]	31.06	17	
Cn1c(Nc2ccc(C(F)(F)F)cc2)nc2cc(Oc3ccnc(-c4nc(C(F)(F)F)c[nH]4)c3)ccc21 [compound 70, 1-Methyl-N-[4-(trifluoromethyl)phenyl]-5-[2-[4-(trifluoromethyl)-1H-imidazol-2-yl]pyridin-4-yloxy]-1H-benzimidazol-2-amine]	44.1		
O=C(Nc1ccc(Cl)c(Cl)c1)Nc1ccc(Cl)c(Cl)c1 [compound 72, 1,3-Bis(3,4-dichlorophenyl)urea]	45.87		
O=[N+]([O-])c1ccc(N/N=C/c2sc(N3CCOCC3)nc2-c2ccccc2)c(S(=O)(=O)Nc2ccccc2Cl)c1 [compound 73, N-(2-chlorophenyl)-2-[(2E)-2-[(2-morpholin-4-yl-4-phenyl-1,3-thiazol-5-yl)methylidene]hydrazinyl]-5-nitrobenzenesulfonamide]	53.9		
CC(C)(C)C(=O)C(=Cc1cccc([N+](=O)[O-])c1)n1cncn1 [compound 76, 4,4-dimethyl-1-(3-nitrophenyl)-2-(1H-1,2,4-triazol-1-yl)-1-penten-3-one]		4.33	Maximum confluence reached (%): 50.44%
CC(C)COCC(CN(Cc1ccccc1)c1ccccc1)N1CCCC1.Cl.O (centres unmarked) [compound 78, 1-[1-(N-Benzylanilino)-3-isobutoxy-2-propyl]pyrrolidine monohydrochloride monohydrate]	30.41		
COc1ccc2cc1Oc1ccc(cc1)C[C@H]1c3cc(c(OC)cc3CCN1C)Oc1c(OC)c(OC)cc3c1[C@H](C2)N(C)CC3 [compound 79, (1beta)-(S,S)-6,6',7,12-Tetramethoxy-2,2'-dimethylberbaman]	99.64		
CCN(CC)CCO[C@H]1CC[C@@]2(C)C(=CC[C@@H]3[C@@H]2CC[C@]2(C)C(=O)CC[C@@H]32)C1.Cl [compound 80, 3beta-[2-(Diethylamino)ethoxy]androst-5-en-17-one hydrochloride]	44.66		
O=C(c1c2ccccc2cc2ccccc12)N1CCC(N2CCC[C@@H](C(=O)N3CCOCC3)C2)CC1 [compound 81, 1-[1'-(Anthracen-9-ylcarbonyl)-1,4'-bipiperidin-3(R)-yl]-1-(4-morpholinyl)methanone]			Maximum confluence reached (%) [2]: 51%
CCN(CC)CCOc1ccc(C(=C(Cl)c2ccccc2)c2ccccc2)cc1.O=C(O)CC(O)(CC(=O)O)C(=O)O [compound 82, 2-[4-(2-Chloro-1,2-diphenylvinyl)phenoxy]-N,N-diethylethanamine citrate]	54.73		
CCN(CC)CCOc1ccc2c(c1)C(=O)c1cc(OCCN(CC)CC)ccc1-2 [compound 84, 2,7-Bis[2-(diethylamino)ethoxy]-9H-fluoren-9-one]	68.89		
Cc1cccc(Nc2nc(-c3ccncc3)cs2)c1 [compound 85, N-(3-Methylphenyl)-4-(4-pyridyl)thiazol-2-amine]	47.81		
O=S(=O)(NCC1CC1)c1ccc(Nc2nccc(N3CCCc4cc(O)ccc43)n2)cc1 [compound 86, N-(Cyclopropylmethyl)-4-[[4-(3,4-dihydro-6-hydroxy-1(2H)-quinolinyl)-2-pyrimidinyl]amino]benzenesulfo namide]	55.04		
CC(C)N1CCN(c2ccc(C(=O)c3c(-c4ccc(O)cc4)sc4cc(O)ccc34)cc2)CC1 [compound 87, 1-[6-Hydroxy-2-(4-hydroxyphenyl)-1-benzothien-3-yl]-1-[4-(4-isopropylpiperazin-1-yl)phenyl]methanone]	41.04		
CN(C)CCC=C1c2ccccc2C=Cc2ccccc21.Cl [compound 90, 3-(5H-Dibenzo[a,d]cyclohepten-5-ylidene)-N,N-dimethylpropan-1-amine hydrochloride]		12.1	Maximum confluence reached (%): 70,19%
Cc1ccc(NC(=O)Nc2cc(C(F)(F)F)ccc2F)cc1Nc1ccc2c(c1)NC(=O)C2=Cc1ccc[nH]1 [compound 92, 1-[2-Fluoro-5-(trifluoromethyl)phenyl]-3-[4-methyl-3-[2-oxo-3-(1H-pyrrol-2-ylmethylene)-2,3-dihydro-1H-indol-6-ylamino]phenyl]urea]	75.5	5.23	
CN1CCN(CCCN2c3ccccc3Sc3ccc(C(F)(F)F)cc32)CC1.Cl.Cl [compound 94, 10-[3-(4-Methylpiperazin-1-yl)propyl]-2-(trifluoromethyl)-10H-phenothiazine dihydrochloride]	37.97		
COc1cc2c(NC3CCN(C(C)C)CC3)nc(N3CCC(F)(F)CC3)nc2cc1OCCCN1CCCC1 [compound 95, 2-(4,4-Difluoropiperidin-1-yl)-6-methoxy-N-[1-(propan-2-yl)piperidin-4-yl]-7-[3-(pyrrolidin-1-yl)propoxy]quinazolin-4-amine]	31.06		
CC[C@@]1([C@@H]2O[C@@H]([C@H]3O[C@@](O)(COC(=O)Nc4ccccc4)[C@H](C)C[C@@H]3C)C[C@@H]2C)CC[C@H]([C@]2(C)CC[C@]3(C[C@H](O)[C@@H](C)[C@@H]([C@@H](C)[C@@H](OC)[C@H](C)C(=O)[O-])O3)O2)O1.[Na+] [compound 98, 4(S)-[(2S,5R,7S,8R,9S)-2-[(2S,2'R,3'S,5R,5'R)-2-Ethyl-5'-[6(R)-hydroxy-3(S),5(R)-dimethyl-6-(phenylaminocarbonyloxymethyl)tetrahydropyran-2(S)-yl]-3'-methylperhydro-2,2'-bifuran-5-yl]-9-hydroxy-2,8-dimethyl-1,6-dioxaspiro[4.5]dec-7-yl]-3(R)-methoxy-2(S)-methylpentanoic acid sodium salt]	38.24	3.18	
CC(C)(C)c1cc(C=C(C#N)C#N)cc(Br)c1O [compound 99, 2-(3-Bromo-5-tert-butyl-4-hydroxybenzylidene)propanedini trile 2-(3-Bromo-5-tert-butyl-4-hydroxybenzylidene)malononitrile]	37.27	7.23	
Cl.O=C(c1c2ccccc2cc2ccccc12)N1CCC(N2CCC[C@@H](C(=O)N3CCOCC3)C2)CC1 [compound 101, 1-[1'-(Anthracen-9-ylcarbonyl)-1,4'-bipiperidin-3(R)-yl]-1-(4-morpholinyl)methanone hydrochloride]	50.88		
Oc1c(Cl)cc(Cl)cc1Sc1cc(Cl)cc(Cl)c1O [compound 102, 2,2'-Thio-bis(4,6-dichlorophenol), Bis(2-hydroxy-3,5-dichlorophenyl) sulfide]	31.25		
CC(C)(C)c1cc(C=C(C#N)C#N)cc(C(C)(C)C)c1O [compound 103, (3,5-Di-tert-butyl-4-hydroxybenzylidene)malononitrile]	51.51	205	
Nc1ccc(C(=O)Nc2cccc(-c3nc(N4CCOCC4)c4oc5ncccc5c4n3)c2)cn1 [compound 104, 6-Amino-N-[3-[4-(4-morpholinyl)pyrido[3',2':4,5]furo [3,2-d]pyrimidin-2-yl]phenyl]pyridine-3-carboxamide]	35.48		
O=C(O)c1ccc(N2C(=O)C(=Cc3ccc(-c4ccc([N+](=O)[O-])cc4)o3)C=C2c2ccccc2)cc1 [compound 105, 4-[3-[5-(4-Nitrophenyl)furan-2-ylmethylene]-2-oxo-5-phenyl-2,3-dihydro-1H-pyrrol-1-yl]benzoic acid]	52.15	236	
CC(C)C[C@H](NC(=O)CNC(=O)c1cc(Cl)ccc1Cl)B(O)O [compound 108, 1(R)-[2-(2,5-Dichlorobenzamido)acetamido]-3-methylbutylboronic acid]	30.79	135	
CN1CCN(CC/C=C2/c3ccccc3Sc3ccc(S(=O)(=O)N(C)C)cc32)CC1 [compound 109, (Z)-N,N-Dimethyl-9-[3-(4-methyl-1-piperazinyl)propylidene]thioxant hene-2-sulfonamide]	36.55		
(1R,2S,3R)-3-(6-Amino-9H-purin-9-yl)-1,2-cyclopentanediol [compound 75]			Maximum confluence reached (%) [2]: 33.14%; IC50 (half maximal concentration able to recover the cytopathic effect of infection, VeroE6-EGFP cells, 0.01 MOI, 5 days, 8 concentrations, read-out: IC50): 0.36 µM
(4R,4aS)-18-Ethenyl-4,4a-dihydro-3,4-bis(methoxycarbonyl)-4a,8,14,19-tetramethyl-24H,26H-benzo[b]porphine-9,13-dipropanoic acid monomethyl ester [compound 39]	89.5		IC50 (read-out: IC50): 30 µM
